Assay results as given in paper PMC2527810, “[^18F]FDG and [^18F]FLT uptake in human breast cancer cells in relation to the effects of chemotherapy: an in vitro study” (British Journal of Cancer, 2008).
pIC50: −log10 of the molar value.

Experiments:
MDA MB231 cells [1] = experiment: Cytotoxicity by sulforhodamine (SRB) assay; type: cell-based; settings: Homo sapiens, MDA-MB-231, 72 h drug incubation, read-out: IC50 (50% reduction in growth)
Description: The human breast cancer cell line MDA MB231 (ATCC no. HTB-26) and CEM leukaemia cells (CEM wild type and TK-deficient CEM/TK-) were cultured in RPMI 1640 supplemented with 10% foetal bovine serum and 1% penicillin/streptomycin (P/S), at 5% CO2 in a humidified atmosphere at 37°C. Cell counting was performed with a Casy cell counter (Schärfe System GmbH, Reutlingen, Germany).
Cytotoxicity to 5-FU (Sigma Chemical Co., MO, St Louis, USA), doxorubicin (doxorubicin hydrochloride, Pfizer, Cappelle a/d IJssel, The Netherlands) and paclitaxel (Sigma Chemical Co.) was determined by sulforhodamine (SRB) assay. Briefly, cells were plated in 96-well plates and after 24 h, drugs were added at various concentrations, incubated for 72 h and the SRB assay was performed as described previously ([de Bruin et al, 2003]). The IC50 is the concentration resulting in 50% reduction in growth compared with untreated control cells.

MDA MB231 cells [2] = experiment: Cell cycle analysis after exposure to IC50 drug concentrations; type: cell-based, human; settings: for cell cycle effect (in words): at IC50 concentrations
Description: For cell cycle analysis, cells were exposed to IC50 concentrations of the various drugs for 4, 24, 48 or 72 h, fixed in 70% ethanol (1 × 10^6 cells per ml) and stored at 4°C until analysis, as described previously ([Temmink et al, 2007]) according to a slightly modified protocol.

[3] = test system: Thymidine kinase (TK) activity in MDA MB231 breast cancer cells; experiment: TK enzyme activity (FLT phosphorylation) in lysates of drug-treated cells; type: cell-based, human; settings: IC50 concentration; for TK activity compared with untreated cells (in words): 48 and 72 h, effects minor
Description: . Enzyme activity was also analysed in CEM cells and in the corresponding TK-1-deficient subtype to assess whether FLT phosphorylation only occurs in the presence of sufficient cytosolic TK-1.
Cell pellets were suspended in 50 mM Tris/1 mM EDTA (pH 7.4) and sonificated on ice. Lysates were spun down and supernatant diluted 1 : 8 in 50 mM Tris/1 mM EDTA (pH 7.4).
3′-deoxy-3′-[^18F]fluorothymidine was diluted with 50 mM Tris/1 mM EDTA (pH 7.4) and 1 : 1 mixed with 20 mM ATP, 10 mM MgCl2, resulting in an FLT concentration of about 60 MBq ml^−1 (6.32–18.89 pmol per sample). […] .
The assay was optimised for protein concentration and incubation times. Diluted cell lysates or purified TK-2 (kindly provided by A. Karlsson, Karolinska Institute, Stockholm, Sweden) were incubated with the FLT mixture for 15 min at 37°C and the reaction was stopped by heating the samples at 95°C for 5 min. Substrate (FLT) and product (FLT-phosphate) were separated by TLC and radioactivity was measured in a single-well gamma counter (Wallac1480 Wizard, Perkin Elmer Lifescience, MA, USA). Protein concentrations were measured in a Bio-Rad Bradford protein assay (Bio-Rad Laboratories, Hercules, CA, USA).

MDA MB231 cells [4] = experiment: Cellular FDG uptake after drug incubation; type: cell-based, human; settings: IC50 concentration
Description: (§1) Cells were plated in six identical 24-well plates at 75 000 cells per ml. […] Control cells were plated in a concentration of 45 000 cells per ml, 4 days before tracer uptake. Cell culture medium was replaced 4 h before adding PET tracers. For FDG plates, medium was replaced with medium without glucose (+IC50 drugs concentration), as glucose competes with FDG uptake. For FLT plates, medium was replaced with medium without L-glutamine (+IC50 drugs concentration). The presence of L-glutamine in the culture medium may reduce FLT uptake, as glutamine is a source of thymidine monophosphate competing with FLT uptake through the de novo pathway.
(§2) One MBq per well FDG or FLT was added to the cells and incubated for 60 min at 37°C. After removal of excess tracer, cellular tracer uptake was determined with an ECAT Exact HR+ PET scanner (Siemens/CTI, Knoxville, TN, USA). Images were analysed using CAPP software (version 7.2, CTI/Siemens, Knoxville, TN, USA). Regions of interest (ROI) were drawn manually in a plane with visible tracer uptake. Next, ROIs were copied to all other planes and total activity per well was calculated and plotted against exact number of cells. Tracer uptake was also determined in an identical plate using the single-well gamma counter. Tracer uptake was corrected for the number of cells.

MDA MB231 cells [5] = experiment: Cellular FLT uptake after drug incubation; type: cell-based, human; settings: IC50 concentration
Description: as §1, §2

[6] = test system: TK-1 protein levels of MDA MB231 cells; experiment: TK-1 protein levels by Western blot; settings: for increase in TK-1 levels compared with untreated cells: abstract, time not stated
[7] = 48 h incubation, IC50 concentration

## O=c1[nH]cc(F)c(=O)[nH]1 [5-FU, 5-fluorouracil]
MDA MB231 cells [1]
  pIC50: 5.30
MDA MB231 cells [2]
  cell cycle effect (in words): accumulation in the G1 phase
[3]
  TK activity compared with untreated cells (in words): increased TK activity
MDA MB231 cells [4]; 4 h
  Mean (±s.d.) change in FDG uptake compared with untreated cells (set to 100%): 67±2%
MDA MB231 cells [4]; 24 h
  Mean (±s.d.) change in FDG uptake compared with untreated cells (set to 100%): 70±13%
MDA MB231 cells [4]; 48 h
  Mean (±s.d.) change in FDG uptake compared with untreated cells (set to 100%): 69±21%
MDA MB231 cells [4]; 72 h
  Mean (±s.d.) change in FDG uptake compared with untreated cells (set to 100%): 45±20%
MDA MB231 cells [4]; 72 h, listed as 5-fluorouracil
  decrease in FDG uptake: approximately 50%
MDA MB231 cells [5]; 4 h
  Mean (±s.d.) change in FLT uptake compared with untreated cells (set to 100%): 99±45%
MDA MB231 cells [5]; 24 h
  Mean (±s.d.) change in FLT uptake compared with untreated cells (set to 100%): 113±7%
MDA MB231 cells [5]; 48 h
  Mean (±s.d.) change in FLT uptake compared with untreated cells (set to 100%): 101±8%
MDA MB231 cells [5]; 72 h
  Mean (±s.d.) change in FLT uptake compared with untreated cells (set to 100%): 46±32%
  decrease in FLT uptake: 54%
MDA MB231 cells [5]; 72 h, listed as 5-fluorouracil
  decrease in FLT uptake: approximately 50%
[6]; 4 h, IC50 concentration
  Mean (±s.d.) change in TK-1 protein levels compared with untreated cells (set to 100%): 163±1%
[6]; 24 h, IC50 concentration
  Mean (±s.d.) change in TK-1 protein levels compared with untreated cells (set to 100%): 122±38%
[6]; 48 h, IC50 concentration
  Mean (±s.d.) change in TK-1 protein levels compared with untreated cells (set to 100%): 184±53%
[6]; 72 h, IC50 concentration
  Mean (±s.d.) change in TK-1 protein levels compared with untreated cells (set to 100%): 443±58%
[6]
  increase in TK-1 levels compared with untreated cells: > 300
[6]; at 48 h, IC50 concentration
  increase in TK-1 levels: two-fold

## COc1cccc2c1C(=O)c1c(O)c3c(c(O)c1C2=O)C[C@@](O)(C(=O)CO)C[C@@H]3O[C@H]1C[C@H](N)[C@H](O)[C@H](C)O1 [doxorubicin]
MDA MB231 cells [1]
  pIC50: 6.70
MDA MB231 cells [2]; [7]
  decrease in G1 phase: 90%
  decrease in S phase: 70%
MDA MB231 cells [2]; 48 h incubation, IC50 concentration, vs control cells
  accumulation in the G2/M phase: two-fold
MDA MB231 cells [2]
  cell cycle effect (in words): G2/M accumulation
[3]; after 24 h
  increase in TK activity compared with untreated cells: more than three-fold
MDA MB231 cells [4]; 4 h
  Mean (±s.d.) change in FDG uptake compared with untreated cells (set to 100%): 57±35%
MDA MB231 cells [4]; 24 h
  Mean (±s.d.) change in FDG uptake compared with untreated cells (set to 100%): 124±59%
MDA MB231 cells [4]; 48 h
  Mean (±s.d.) change in FDG uptake compared with untreated cells (set to 100%): 133±45%
MDA MB231 cells [4]; 72 h
  Mean (±s.d.) change in FDG uptake compared with untreated cells (set to 100%): 171±0%
  increase in FDG uptake: 71%
MDA MB231 cells [4]; at 24, 48 and 72 h
  increase in FDG uptake: > 24%
MDA MB231 cells [5]; 4 h
  Mean (±s.d.) change in FLT uptake compared with untreated cells (set to 100%): 123±83%
MDA MB231 cells [5]; 24 h
  Mean (±s.d.) change in FLT uptake compared with untreated cells (set to 100%): 137±52%
MDA MB231 cells [5]; 48 h
  Mean (±s.d.) change in FLT uptake compared with untreated cells (set to 100%): 494±232%
MDA MB231 cells [5]; 72 h
  Mean (±s.d.) change in FLT uptake compared with untreated cells (set to 100%): 273±209%
  increase in FLT uptake: 173%
MDA MB231 cells [5]; irrespective of incubation time
  increase in FLT uptake: > 24%
[6]; 4 h, IC50 concentration
  Mean (±s.d.) change in TK-1 protein levels compared with untreated cells (set to 100%): 64±6%
[6]; 24 h, IC50 concentration
  Mean (±s.d.) change in TK-1 protein levels compared with untreated cells (set to 100%): 130±78%
[6]; 48 h, IC50 concentration
  Mean (±s.d.) change in TK-1 protein levels compared with untreated cells (set to 100%): 177±71%
[6]; 72 h, IC50 concentration
  Mean (±s.d.) change in TK-1 protein levels compared with untreated cells (set to 100%): 473±348%
[6]
  increase in TK-1 levels compared with untreated cells: > 300
[6]; at 48 h, IC50 concentration
  increase in TK-1 levels: two-fold

## CC(=O)O[C@H]1C(=O)[C@@]2(C)[C@H]([C@H](OC(=O)c3ccccc3)[C@]3(O)C[C@H](OC(=O)[C@H](O)[C@@H](NC(=O)c4ccccc4)c4ccccc4)C(C)=C1C3(C)C)[C@]1(OC(C)=O)CO[C@@H]1C[C@@H]2O [paclitaxel]
MDA MB231 cells [1]
  pIC50: 8.60
MDA MB231 cells [2]; 4 h drug incubation, IC50 concentration
  increase in G2/M phase: 1.2 fold
MDA MB231 cells [2]
  cell cycle effect (in words): G2/M accumulation
[3]
  TK activity compared with untreated cells (in words): increased TK activity
MDA MB231 cells [4]; 4 h
  Mean (±s.d.) change in FDG uptake compared with untreated cells (set to 100%): 105±41%
MDA MB231 cells [4]; 24 h
  Mean (±s.d.) change in FDG uptake compared with untreated cells (set to 100%): 125±99%
MDA MB231 cells [4]; 48 h
  Mean (±s.d.) change in FDG uptake compared with untreated cells (set to 100%): 207±163%
MDA MB231 cells [4]; 72 h
  Mean (±s.d.) change in FDG uptake compared with untreated cells (set to 100%): 228±182%
MDA MB231 cells [4]; after 48 h (at 48 and 72 h)
  increase in FDG uptake: > 100%
MDA MB231 cells [5]; 4 h
  Mean (±s.d.) change in FLT uptake compared with untreated cells (set to 100%): 108±2%
MDA MB231 cells [5]; 24 h
  Mean (±s.d.) change in FLT uptake compared with untreated cells (set to 100%): 112±54%
MDA MB231 cells [5]; 48 h
  Mean (±s.d.) change in FLT uptake compared with untreated cells (set to 100%): 118±14%
MDA MB231 cells [5]; 72 h
  Mean (±s.d.) change in FLT uptake compared with untreated cells (set to 100%): 166±18%
  increase in FLT uptake: 66%
MDA MB231 cells [5]; abstract
  FLT uptake change (in words): hardly changed
[6]; 4 h, IC50 concentration
  Mean (±s.d.) change in TK-1 protein levels compared with untreated cells (set to 100%): 103±6%
[6]; 24 h, IC50 concentration
  Mean (±s.d.) change in TK-1 protein levels compared with untreated cells (set to 100%): 62±4%
[6]; 48 h, IC50 concentration
  Mean (±s.d.) change in TK-1 protein levels compared with untreated cells (set to 100%): 54±16%
[6]; 72 h, IC50 concentration
  Mean (±s.d.) change in TK-1 protein levels compared with untreated cells (set to 100%): 52±32%
[6]; at 48 h, IC50 concentration
  decrease in TK-1 levels: > 40%
